This is an account of results in patent publication US20150210660A1, “ALICYCLIC EPOXY COMPOUND AND METHOD FOR PRODUCING SAME” (DAICEL CORPORATION, priority 2012, published 2015).

Series [1] is described as follows: Evaluation of reactivity with acid (stirring with 2-ethylhexanoic acid in 1,3,5-trimethylbenzene at 150° C.). It is filed as physicochemical. To be noted: for Oxirane oxygen content: HBr titrimetry; for Acid value: JIS K 0070. As to the method:
A mixture was prepared by blending 5.2 g of the 3,4-epoxycyclohexylmethyl 3,5,5-trimethylhexanoate prepared in Example 1 (product of Example 1), 1.4 g of 2-ethylhexanoic acid (trade name Octanoic Acid, supplied by Kyowa Hakko Chemical Co., Ltd.), and 8.5 g of 1,3,5-trimethylbenzene (reagent, supplied by Wako Pure Chemical Industries, Ltd.). The mixture was stirred at 150° C. for 6 hours. The acid value and oxirane oxygen content of the mixture were measured before the stirring with heating, and 2 hours, 4 hours, and 6 hours into the stirring.
The oxirane oxygen content measurement in the evaluation of reactivity with acid was performed by HBr titrimetry in which titration was performed with a N/10 hydrogen bromide solution in acetic acid and with crystal violet as an indicator. The acid value measurement was performed in conformance with a method described in JIS K 0070.
Instead of 3,4-epoxycyclohexylmethyl 3,5,5-trimethylhexanoate, there were prepared 3,4-epoxycyclohexylmethyl(3,4-epoxy)cyclohexane carboxylate (trade name CELLOXIDE 2021P, supplied by Daicel Corporation), 4-vinylcyclohexene oxide (trade name CELLOXIDE 2000, supplied by Daicel Corporation), 1-methyl-4-(2-methyloxiranyl)-7-oxabicyclo[4.1.0]heptane (trade name CELLOXIDE 3000, supplied by Daicel Corporation), D-limonene oxide (supplied by Nippon Terpene Chemicals, Inc.), and di-2-ethylhexyl epoxyhexahydrophthalate (trade name SANSO CIZER E-PS, supplied by New Japan Chemical Co., Ltd.). These epoxides were used in charged amounts given in Table 1 and subjected to evaluation of reactivity with an acid (2-ethylhexanoic acid) by the above procedure.
Table 2 also gives acid residual percentages as calculated from the acid values. The acid residual percentages are percentages of the acid present in the system (in the mixture) at the individual timings (after 2 hours, 4 hours, and 6 hours) in which the amount of the acid present in the system before the stirring with heating (0 hour) was defined as 100%.

The nature of series [2]: Volatility evaluation: boiling point measurement under reduced pressure using a distillator. It counts as physicochemical. How it is done:
The 3,4-epoxycyclohexylmethyl 3,5,5-trimethylhexanoate prepared in Example 1 was subjected to boiling point measurement under reduced pressure using a distillator.
The measured boiling points at the individual pressures were plotted on a logarithmic graph (semilogarithmic graph with the logarithmic scale indicating the pressure) to give an approximate curve. Using the approximate curve, a boiling point of the product at normal atmospheric pressure (760 Torr; 101325 Pa) was calculated and found to be 307° C.

The mark [3] stands for this setting: stirring time 0 hr (before heating), defined as 100%.
[4] abbreviates: stirring time 0 hr (before heating).
Setting [5] is: stirring time 2 hrs at 150° C., calculated from acid values, 0 hr = 100%.
The mark [6] stands for this setting: stirring time 4 hrs at 150° C., calculated from acid values, 0 hr = 100%.
Where [7] appears, read: stirring time 6 hrs at 150° C., calculated from acid values, 0 hr = 100%.

With `CC(CC(=O)OCC1CCC2OC2C1)CC(C)(C)C` (centres unmarked) [Product of Example 1, 3,4-epoxycyclohexylmethyl 3,5,5-trimethylhexanoate], the “acid-scavenging capability (reactivity with the acid)” value in series [1] (as compared with the other epoxides of Table 2) is recorded as “higher acid-scavenging capability”. Further, the Acid residual percentage in series [1] (setting [3]) is 100%; in series [1] (setting [5]), 54%; in series [1] (setting [6]), 35%; in series [1] (setting [7]), 27%. Further, the Oxirane oxygen content in series [1] (setting [4]) is 1.82%; in series [1] (stirring time 2 hrs at 150° C.), 1.20%; in series [1] (stirring time 4 hrs at 150° C.), 1.00%; in series [1] (stirring time 6 hrs at 150° C.) it was 0.89%. The Acid value in series [1] (setting [4]) amounted to 37.66 KOH-mg/g; in series [1] (stirring time 2 hrs at 150° C.), 20.32 KOH-mg/g; in series [1] (stirring time 4 hrs at 150° C.), 13.13 KOH-mg/g; in series [1] (stirring time 6 hrs at 150° C.), 9.98 KOH-mg/g. Moreover, the “boiling point at normal atmospheric pressure” value in series [2] (760 Torr, 101325 Pa, calculated from approximate curve of the measured boiling points) was 307 °C. For the same compound, the values for the boiling point in series [2] (at 11 Torr (1467 Pa)), in series [2] (at 31 Torr (4133 Pa)) and in series [2] (at 50 Torr (6666 Pa)) were 191 °C, 218 °C and 233 °C, respectively.
Consider `O=C(OCC1CCC2OC2C1)C1CCC2OC2C1` (centres unmarked) [CELLOXIDE 2021P, 3,4-epoxycyclohexylmethyl(3,4-epoxy)cyclohexane carboxylate], for which the Acid residual percentage in series [1] (setting [3]) was 100%; in series [1] (setting [5]), 57%; in series [1] (setting [6]) it was 39%; in series [1] (setting [7]) it was 30%. Besides, the Oxirane oxygen content in series [1] (setting [4]) amounted to 2.00%; in series [1] (stirring time 2 hrs at 150° C.), 1.51%; in series [1] (stirring time 4 hrs at 150° C.) it was 1.33%; in series [1] (stirring time 6 hrs at 150° C.) it was 1.11%. Moreover, the Acid value was 37.56 KOH-mg/g in series [1] (setting [4]), 21.23 KOH-mg/g in series [1] (stirring time 2 hrs at 150° C.), 14.54 KOH-mg/g in series [1] (stirring time 4 hrs at 150° C.) and 11.22 KOH-mg/g in series [1] (stirring time 6 hrs at 150° C.).
Regarding `C=C(C)C1CCC2(C)OC2C1` [D-Limonene oxide, D-limonene oxide], the Acid residual percentage in series [1] (setting [3]) is listed as 100%; in series [1] (setting [5]), 68%; in series [1] (setting [6]) it was 58%; in series [1] (setting [7]), 50%. The Oxirane oxygen content in series [1] (setting [4]) worked out at 1.92%; in series [1] (stirring time 2 hrs at 150° C.) it was 1.56%; in series [1] (stirring time 4 hrs at 150° C.), 1.38%; in series [1] (stirring time 6 hrs at 150° C.), 1.25%. Besides, the Acid value in series [1] (setting [4]) is reported as 38.36 KOH-mg/g; in series [1] (stirring time 2 hrs at 150° C.) it was 26.27 KOH-mg/g; in series [1] (stirring time 4 hrs at 150° C.) it was 22.44 KOH-mg/g; in series [1] (stirring time 6 hrs at 150° C.), 19.15 KOH-mg/g.
With `C=CC1CCC2OC2C1` (centres unmarked) [CELLOXIDE 2000, 4-vinylcyclohexene oxide], the Acid residual percentage is reported as 100% in series [1] (setting [3]), 66% in series [1] (setting [5]), 49% in series [1] (setting [6]) and 36% in series [1] (setting [7]). Moreover, the Oxirane oxygen content in series [1] (setting [4]) turned out to be 1.92%; in series [1] (stirring time 2 hrs at 150° C.) it was 146%; in series [1] (stirring time 4 hrs at 150° C.) it was 1.25%; in series [1] (stirring time 6 hrs at 150° C.), 1.15%. The Acid value came to 35.90 KOH-mg/g in series [1] (setting [4]), 23.80 KOH-mg/g in series [1] (stirring time 2 hrs at 150° C.), 17.54 KOH-mg/g in series [1] (stirring time 4 hrs at 150° C.) and 12.90 KOH-mg/g in series [1] (stirring time 6 hrs at 150° C.).
For `CC1(C2CCC3(C)OC3C2)CO1` (centres unmarked) [CELLOXIDE 3000, 1-methyl-4-(2-methyloxiranyl)-7-oxabicyclo[4.1.0]heptane], the Acid residual percentage in series [1] (setting [3]) is listed as 100%; in series [1] (setting [5]), 68%; in series [1] (setting [6]), 61%; in series [1] (setting [7]) it was 52%. Also, the Oxirane oxygen content in series [1] (setting [4]) is recorded as 1.81%; in series [1] (stirring time 2 hrs at 150° C.), 0.91%; in series [1] (stirring time 4 hrs at 150° C.), 0.71%; in series [1] (stirring time 6 hrs at 150° C.), 0.61%. Also, the Acid value worked out at 36.04 KOH-mg/g in series [1] (setting [4]), 24.52 KOH-mg/g in series [1] (stirring time 2 hrs at 150° C.), 22.04 KOH-mg/g in series [1] (stirring time 4 hrs at 150° C.) and 18.65 KOH-mg/g in series [1] (stirring time 6 hrs at 150° C.).
Take `CCCCC(CC)COC(=O)C1CC2OC2CC1C(=O)OCC(CC)CCCC` (centres unmarked) [SANSO CIZER E-PS, di-2-ethylhexyl epoxyhexahydrophthalate]: the Acid residual percentage in series [1] (setting [3]) is 100%; in series [1] (setting [5]), 89%; in series [1] (setting [6]) it was 84%; in series [1] (setting [7]), 73%. In addition, the Oxirane oxygen content in series [1] (setting [4]) stood at 1.84%; in series [1] (stirring time 2 hrs at 150° C.), 1.72%; in series [1] (stirring time 4 hrs at 150° C.), 1.63%; in series [1] (stirring time 6 hrs at 150° C.) it was 1.53%. Moreover, the Acid value in series [1] (setting [4]) is recorded as 38.13 KOH-mg/g; in series [1] (stirring time 2 hrs at 150° C.) it was 33.80 KOH-mg/g; in series [1] (stirring time 4 hrs at 150° C.) it was 32.16 KOH-mg/g; in series [1] (stirring time 6 hrs at 150° C.) it was 27.97 KOH-mg/g.
